Source: PMC8877008, “Synthesis and Structure–Activity Relationship Studies of Benzimidazole-4,7-dione-Based P2X3 Receptor Antagonists as Novel Anti-Nociceptive Agents” (Molecules, 2022)

Assays:
hP2X3R = target: T1, hP2X3R (Homo sapiens, UniProt P56373); test: Calcium influx (Fluo-4) evoked by α,β-meATP in HEK293 cells stably expressing hP2X3R; assay type: cell-based; conditions: antagonistic activity; HEK293 cells expressing hP2X3R; agonist at EC70
T1 construct: expressed in transfected cells
T1 sequence (P56373 1-397): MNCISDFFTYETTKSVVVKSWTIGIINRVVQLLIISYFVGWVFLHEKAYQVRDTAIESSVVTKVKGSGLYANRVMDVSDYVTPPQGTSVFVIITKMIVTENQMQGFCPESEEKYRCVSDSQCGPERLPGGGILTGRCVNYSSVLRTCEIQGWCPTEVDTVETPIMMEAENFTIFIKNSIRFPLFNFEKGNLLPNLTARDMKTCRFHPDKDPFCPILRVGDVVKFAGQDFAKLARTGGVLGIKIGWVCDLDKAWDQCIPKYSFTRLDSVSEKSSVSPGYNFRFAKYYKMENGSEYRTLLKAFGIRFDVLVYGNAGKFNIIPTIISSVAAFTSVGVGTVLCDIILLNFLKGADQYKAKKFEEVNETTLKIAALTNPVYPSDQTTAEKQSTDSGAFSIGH
Experimental: For the evaluation of P2XR activities, a cell-based assay system was employed to measure the level of fluorescence emission, based on Fluo-4 dye, during Ca^2+ influx evoked by αβmeATP in HEK293 cells stably expressing hP2X2/3R and hP2X3R. The library containing 8364 representative compounds for the screening of antagonistic activity was provided by the Korea Chemical Bank. The antagonistic activities were evaluated in the presence of P2X3R agonist of the concentration for EC70 value (200–250 nM for hP2X3R and 1–4 μM for hP2X2/3R highly expressed cell lines), and AF353 was used as the positive control antagonist for comparison. For the first round of screening, a single concentration (25 μM) of each library compound was tested to identify initial hit compounds, which were subsequently validated using both concentrations of 25 and 10 μM. Using a cut-off threshold of higher than 50% antagonistic activity and after confirming dose-dependency, 12 main hit compounds were selected.
3.4. Cell-Based Assay: Measurement of Calcium Influx by Fluorescence-Based Fluo-4 Dye Uptake in HEK293 Cells Expressing hP2X2/3 and hP2X3 Receptors
Human P2X3-expressing HEK293 cells were grown in DMEM supplemented with 10% fetal bovine serum and 1% antibiotic–antimycotic as a monolayer culture at 37 °C in a humidified atmosphere of 5% CO2. The 96-well black plates used in the experiments were prepared by coating them with 1× poly-D-lysine (A3890401, Thermo-Fisher Scientific Korea, Seoul, South Korea). An aliquot of 40 μL 1× poly-D-lysine was used to treat each of the wells in a flat orientation. After leaving the plates for at least 4 h to absorb the poly-D-lysine, the plates were allowed to dry for at least 6 h. The DMEM used in the culture of HEK293 cells was removed from the dish, followed by application of 3 mL 1× PBS for washing. Removal of 1× PBS was followed by application of 1 mL trypsin/EDTA, and the cells were collected by centrifugation at 1200 rpm for 2 min. The supernatant was removed, and 1 mL fresh DMEM added. The cells were resuspended in media and plates prepared with 4.8 × 10^4 cells/well in 56 μL/well. After 18 h of cell culture in the 96-well black plate, 56 μL of Fluo-4 dye (Fluo-4 Direct^TM Calcium Assay Kit, F10471, Invitrogen, Thermo-Fisher Scientific Korea, Seoul, South Korea) was added to each well, prepared according to the manufacturer’s protocol, and incubated for 50 min~1 h under culturing conditions. Then, 12.4 μL of the appropriate compound solution was added to each well, and the positive control was AF353 (A1612, Sigma Aldrich Korea, Seoul, South Korea) and the negative control was 5% DMSO. Plates were incubated at room temperature and sealed to avoid interference from light for 50 min~1 h. Flexstation 3 and its software provided by Molecular Devices was used for the measurement of fluorescence in real time of treatments using prepared α,β-meATP (M6517, Sigma Aldrich) solution to evoke calcium influx and increased cell membrane potential.
For the analysis of antagonistic activities, all data were calculated by Origin Pro 9.1 software provided by Originlab and the fitting of graphs was proceeded by the growth/sigmoidal and hill1 process within no weights for data selections. For the analysis of the behavioral assessments of pain models, all data are expressed as mean ± SEM. The dose–response data are presented as percentages of the maximum possible effect. Statistical significance was analyzed by independent t-test. The criterion for statistical significance was p < 0.05. The statistical analysis was performed using SPSS 25.0 software (IBM Corp., Armonk, NY, USA).

[1] = In vivo pharmacokinetic study in rats; conditions: male, SD, plasma, 10 mg/kg; oral administration, 10 mpk, rat
Experimental: Experiments were used to determine any changes during in vivo pharmacokinetics, such as absorption, distribution, metabolism, and excretion of compounds, which are correlated with drug efficacy and toxicity. Pharmacokinetic experiments using rats were mainly conducted using 8-week-old SD male rats (Osan, Kyungki-Do, Korea). A tube was inserted into the femoral vein, the intravenous administration group was administered through the tube, and the oral administration group was administered the drug orally using oral gavage (1–2 mL/kg). Blood collection for the drug was performed at fixed times ([…], 0.25, 0.5, 1, 2, 4, 6, 8, and 24 h) from the time when the tube was inserted into the femoral vein. Blood was centrifuged to separate plasma, and plasma and urine samples were pretreated (minimum 0.5 ng/mL and maximum 8000 ng/mL) using an appropriate organic solvent. For sample preparation, the working solution of rat blank plasma was spiked, followed by preparation of plasma samples with solid phase extraction. Next, the concentration of 100 μL eluent was analyzed by LC–MS/MS (Mass spectrometry 4000 Qtrap with HPLC, Agilent 1200, Santa Clara, CA, USA). The noncompartmental pharmacokinetic parameters were calculated from the blood concentration–time data of the drug analyzed using the noncompartmental analysis model of WinNonlin (Pharsight ver 6.4, Princeton, NJ, USA).

Solubility in DMSO/water = assay type: physicochemical; conditions: DMSO in water
SNL rats = test: Antiallodynic effect, spinal nerve ligation (SNL) neuropathic pain model, von Frey; assay type: in vivo, male Sprague-Dawley rats; conditions: intravenous 12 mg/kg, von Frey filaments, five rats
Text: The experimental protocol (CNUHIACUC-20039) was approved by the Institutional Animal Care and Use Committee of Chonnam National University Hospital. Animal models of neuropathic pain (NP) were constructed by spinal nerve ligation (SNL) or chemotherapeutics injection (chemotherapy-induced peripheral neuropathy, CIPN) in male Sprague-Dawley rats (weight, 150–180 g). Briefly, under sevoflurane anesthesia, the left L5 and L6 spinal nerves near the vertebral column were separated and tightly ligated using 6-0 silk. Cisplatin was administered intraperitoneally at 2 mg/kg once daily for 4 days. The paw withdrawal threshold (PWT) to mechanical stimuli was measured using calibrated 0.41–15.2 g von Frey filaments (Stoelting, Wood Dale, IL, USA), as described previously. […] The antiallodynic effects of the intravenous vehicle and LDD4692 (3mg/rat) were evaluated and expressed as the percentage of the maximal possible effect (% MPE). % MPE = [(post drug PWT − post injured baseline PWT)/(cutoff PWT − post injured baseline PWT)] × 100
For the analysis of antagonistic activities, all data were calculated by Origin Pro 9.1 software provided by Originlab and the fitting of graphs was proceeded by the growth/sigmoidal and hill1 process within no weights for data selections. For the analysis of the behavioral assessments of pain models, all data are expressed as mean ± SEM. […]

- IC50 (hP2X3R): 375 ± 33 nM
- AUC(0-inf) [1]: 250 ng·h/mL
- Cmax [1]: 40 ng/mL
- Tmax [1]: 0.33 h
- half-life [1]: 7.58 h
- Solubility (Solubility in DMSO/water): soluble in 30% DMSO in water
SMILES: O=C1C(NC2CCN(C(=O)c3ccc(F)c(F)c3)CC2)=C(Cl)C(=O)c2[nH]c(C(F)(F)F)nc21 [14h, 6-Chloro-5-((1-(3,4-difluorobenzoyl)piperidin-4-yl)amino)-2-(trifluoromethyl)-1H-benzo[d]imidazole-4,7-dione]
- Maximal possible effect (% MPE), antiallodynic (SNL rats): 54%
